Here are results for seven compounds from DBAASP.

SMILES strings stand for the structures. ≈ marks a conversion by molar mass, not a printed value.

Some test systems named below: Escherichia coli BL21; Acinetobacter baumannii; Vibrio cholerae O1 Inaba; Escherichia coli O157:H7; Escherichia coli TOP 10; Escherichia coli W3110.
Common to all, as to assay: ≥ marks a high value that may be exact or a test limit, other limits are often not marked, values filed in µg/mL are converted to µM
The subject of assay [1] is Streptococcus pyogenes M1T1 5448.
In assay [2] the test system is Pseudomonas aeruginosa PAO1.
Assay [3] concerns Escherichia coli ATCC 25922.
The test system of assay [4] is Staphylococcus aureus ATCC 29213.
The test system of assay [5] is Cryptococcus neoformans ATCC 208821.
The subject of assay [6] is Staphylococcus aureus ATCC 43300.
Assay [7] deals with Enterococcus faecium ATCC 35667.
Assay [8] has as its system Bacillus subtilis ATCC 6051.
Assay [9] concerns Candida tropicalis ATCC 750.
In assay [10] the test system is Staphylococcus aureus VRSA1.
Assay [11] has as its system Acinetobacter baumannii ATCC 19606.
Assay [12] has as its system Klebsiella pneumoniae ATCC 700603.
Assay [13] has as its system Streptococcus pneumoniae ATCC 700677.
The subject of assay [14] is Pseudomonas aeruginosa ATCC 27853.
Assay [15] deals with Candida albicans ATCC 90028.
Assay [16] relates to Bacillus megaterium ATCC 13632.
Assay [17] relates to Staphylococcus aureus ATCC 29231.
Assay [18] relates to Klebsiella pneumoniae WGLW2.
The test system of assay [19] is Acinetobacter baumannii ATCC 7978.
Assay [20] concerns Enterococcus faecium E007.
Assay [21] concerns Candida albicans ATCC 10231.
The test system of assay [22] is Staphylococcus aureus MW2.
Assay [23] relates to Klebsiella aerogenes ATCC 13048.
Assay [24] has as its system Pseudomonas aeruginosa PA14.
The test system of assay [25] is Salmonella enterica subsp. enterica serovar Typhimurium ATCC 13311.
Assay [26] deals with Shigella sonnei ATCC 11060.
Assay [27] has as its system Listeria monocytogenes 10403s.
The subject of assay [28] is Bacillus cereus ATCC 11778.
Assay [29] has as its system Staphylococcus epidermidis ATCC 12228.
Assay [30] deals with Staphylococcus aureus ATCC 25923.
For assay [31], the system named is Enterococcus faecalis ATCC 29212.
For assay [32], the system named is Klebsiella pneumoniae ATCC BAA-1705.

For `CC[C@H](C)[C@H](NC(=O)[C@H](CCCCN)NC(=O)[C@H](C)NC(=O)[C@H](CCCN=C(N)N)NC(=O)[C@H](CCCCN)NC(=O)CNC(=O)[C@H](CCCCN)NC(=O)[C@H](CCC(=O)O)NC(=O)[C@H](CCC(N)=O)NC(=O)[C@@H](NC(=O)[C@H](CCCCN)NC(=O)[C@H](CCCCN)NC(=O)[C@H](CCCCN)NC(=O)[C@H](CC(C)C)NC(=O)[C@H](CCCN=C(N)N)NC(=O)[C@H](CCC(N)=O)NC(=O)[C@H](Cc1ccccc1)NC(=O)[C@@H](NC(=O)[C@@H](NC(=O)[C@H](CCC(=O)O)NC(=O)[C@H](CCCCN)NC(=O)CNC(=O)[C@H](C)N)[C@@H](C)O)[C@@H](C)CC)[C@@H](C)CC)C(=O)N[C@@H](C)C(=O)N[C@@H](Cc1c[nH]c2ccccc12)C(=O)O` [AGKETIFQRLKKKIQEKGKRAKIAW], the MIC was determined as 0.5 µM (≈ 1.48 µg/mL) in assay [1], 1 µM (≈ 2.96 µg/mL) against Escherichia coli BL21 and 32 µM (≈ 94.6 µg/mL) in [2].
As for `CC[C@H](C)[C@H](N)C(=O)N[C@@H](Cc1ccccc1)C(=O)NCC(=O)N[C@H](C(=O)N[C@H](C(=O)N[C@@H](CC(C)C)C(=O)NCC(=O)N[C@@H](Cc1ccccc1)C(=O)N[C@@H](CC(C)C)C(=O)N[C@@H](CCCCN)C(=O)NCC(=O)N[C@@H](CC(C)C)C(N)=O)[C@@H](C)CC)[C@@H](C)O` [IFGTILGFLKGL], the MIC in assay [3] came out at 100 µM (≈ 128 µg/mL); in assay [4], 12.5 µM (≈ 16 µg/mL); in assay [5], 25 µM (≈ 32 µg/mL); in assay [6] it was 12.5 µM (≈ 16 µg/mL); in assay [7] it was 25 µM (≈ 32 µg/mL); in assay [8] it was 25 µM (≈ 32 µg/mL). In addition, the minimum inhibitory concentration (MIC) was 25 µM (≈ 32 µg/mL) in assay [9]; 12.5 µM (≈ 16 µg/mL) in assay [10]; 100 µM (≈ 128 µg/mL) in assay [11]; 200 µM (≈ 256 µg/mL) in assay [12]; 25 µM (≈ 32 µg/mL) in assay [13]; greater than 200 µM in assay [14]. Further, the figures for the minimal inhibitory concentration (MIC) in [15] and in assay [16] were no less than 100 µM and 12.5 µM (≈ 16 µg/mL), respectively.
With `CC[C@H](C)[C@H](NC(=O)[C@H](CCCCN)NC(=O)[C@H](Cc1c[nH]c2ccccc12)NC(=O)[C@@H](N)CC(C)C)C(=O)NCC(=O)N[C@@H](Cc1c[nH]c2ccccc12)C(=O)N[C@@H](CCCCN)C(=O)N[C@H](C(=O)N[C@@H](Cc1c[nH]c2ccccc12)C(=O)N[C@@H](CCCN=C(N)N)C(=O)N[C@H](C(=O)NCC(=O)O)C(C)C)[C@@H](C)CC` [LWKIGWKIWRVG], the minimum inhibitory concentration (MIC) in assay [17] was no less than 41.5 µM; in [18] it was no less than 41.5 µM; in assay [19], 20.8 µM (≈ 32 µg/mL); in assay [20], no less than 83 µM; in assay [21] it was 83 µM (≈ 128 µg/mL); in assay [22] it was no less than 41.5 µM.
Turning to `CC[C@H](C)[C@H](NC(=O)[C@H](CCCCN)NC(=O)[C@H](CCCCN)NC(=O)[C@H](Cc1c[nH]c2ccccc12)NC(=O)[C@@H](NC(=O)[C@H](CCCCN)NC(=O)[C@H](Cc1c[nH]c2ccccc12)NC(=O)[C@@H](N)CC(C)C)[C@@H](C)CC)C(=O)N[C@@H](Cc1c[nH]c2ccccc12)C(=O)N[C@@H](CCCN=C(N)N)C(=O)N[C@H](C(=O)N[C@@H](Cc1c[nH]c2ccccc12)C(=O)N[C@@H](CCCCN)C(=O)N[C@@H](CC(N)=O)C(=O)N[C@@H](Cc1c[nH]c2ccccc12)C(=O)N[C@@H](CCCN=C(N)N)C(=O)O)C(C)C` [LWKIWKKIWRVWKNWR], the MIC in [17] was 3.44 µM (≈ 8 µg/mL); in assay [23] it was 13.8 µM (≈ 32 µg/mL); in assay [19] it was 27.5 µM (≈ 64 µg/mL); in assay [20] it was no less than 55 µM; in assay [24], 13.8 µM (≈ 32 µg/mL).
As for `CC(C)C[C@H](NC(=O)[C@@H](N)CCCN=C(N)N)C(=O)N[C@@H](Cc1ccccc1)C(=O)N[C@@H](CCCN=C(N)N)C(=O)N[C@@H](CCCN=C(N)N)C(=O)N[C@H](C(=O)N[C@@H](CCCCN)C(=O)N[C@@H](CCCCN)C(=O)N[C@H](C(=O)N[C@@H](C)C(=O)NCC(N)=O)C(C)C)C(C)C` [RLFRRVKKVAG], the minimal inhibitory concentration (MIC) is no less than 188 µM in assay [25]; no less than 188 µM in assay [26]; no less than 188 µM in [27]; no less than 188 µM in assay [28]; greater than 188 µM in assay [3]; no less than 188 µM in the assay with Acinetobacter baumannii. Moreover, the minimal inhibitory concentration (MIC) against Vibrio cholerae O1 Inaba is no less than 188 µM; in [29] it was greater than 188 µM; in assay [30] it was greater than 188 µM; in assay [14], greater than 188 µM; in assay [31] it was greater than 188 µM; with Escherichia coli O157:H7 it was no less than 188 µM.
`CC(C)C[C@H](NC(=O)[C@@H](N)[C@@H](C)O)C(=O)N1CCC[C@H]1C(=O)N[C@@H](CCC(=O)O)C(=O)N[C@@H](Cc1c[nH]c2ccccc12)C(=O)N[C@@H](CC(=O)O)C(=O)N[C@@H](CC(=O)O)C(=O)N[C@@H](CCCN=C(N)N)C(=O)N[C@@H](CCCN=C(N)N)C(=O)N[C@H](C(=O)N[C@H](C(=O)N[C@@H](CC(N)=O)C(=O)N[C@@H](CO)C(N)=O)C(C)C)C(C)C` [TLPEWDDRRVVNS]: the MIC in the assay on Escherichia coli TOP 10 is no less than 63 µM.
On to `CC[C@H](C)[C@H](NC(=O)[C@H](CCCN=C(N)N)NC(=O)[C@H](CCCN=C(N)N)NC(=O)[C@H](Cc1ccc(O)cc1)NC(=O)[C@H](CCCN=C(N)N)NC(=O)[C@H](CC(C)C)NC(=O)[C@H](CC(C)C)NC(=O)[C@H](CCCCN)NC(=O)[C@H](CC(C)C)NC(=O)CNC(=O)[C@H](Cc1c[nH]c2ccccc12)NC(=O)[C@H](CS)NC(=O)[C@H](C)NC(=O)[C@H](Cc1c[nH]c2ccccc12)NC(=O)[C@H](CCCN=C(N)N)NC(=O)[C@@H](N)Cc1c[nH]c2ccccc12)C(=O)N[C@@H](Cc1ccc(O)cc1)C(=O)O` [WRWACWGLKLLRYRRIY], for which the figures for the MIC (in the assay with Escherichia coli W3110; in [32]) were 8 µM (≈ 18.7 µg/mL) and no less than 64 µM, respectively.
